Measurements: patent publication US6054435A, “6-O-substituted macrolides having antibacterial activity” (priority 1999, dated 2000)
In brackets after ≈: the same amount, converted by molar mass.

Columns and labels:
Test in all cases: in vitro antibacterial activity (MIC), agar dilution
Assay type in all cases: cell-based
[1] = tested on: Staphylococcus aureus ATCC 6538P; conditions: organism code AA; BHI agar, 35-37° C., 20 to 24 hours; unit assumed
Procedure, shortened: (§1)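 Plates of BHI agar were prepared with twelve aqueous dilutions of compound, then inoculated at 1:100 dilution, or 1:10 for slow growers like Streptococcus. After incubation they were inspected, and the lowest concentration yielding no growth, slight haze or sparse colonies was recorded as MIC.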

Candida albicans CCH 442 = conditions: organism code TT; BHI agar, 35-37° C., 20 to 24 hours; unit assumed
Procedure, shortened: as §1

[2] = tested on: Streptococcus pyogenes PIU 2548; conditions: organism code NN; BHI agar, 35-37° C., 20 to 24 hours; unit assumed
Procedure, shortened: as §1

[3] = tested on: Streptococcus agalactiae CMX 508; conditions: organism code KK; BHI agar, 35-37° C., 20 to 24 hours; unit assumed
Procedure, shortened: as §1

[4] = tested on: Staphylococcus aureus A5177; conditions: organism code BB; BHI agar, 35-37° C., 20 to 24 hours; unit assumed
Procedure, shortened: as §1

[5] = tested on: Streptococcus bovis A-5169; conditions: organism code JJ; BHI agar, 35-37° C., 20 to 24 hours; unit assumed
Procedure, shortened: as §1

[6] = tested on: Streptococcus Pneumonia 5649; conditions: organism code ZZA; BHI agar, 35-37° C., 20 to 24 hours; unit assumed
Procedure, shortened: as §1

[7] = tested on: Staphylococcus aureus 1775; conditions: organism code GG; BHI agar, 35-37° C., 20 to 24 hours; unit assumed
Procedure, shortened: as §1

Escherichia coli DC-2 = conditions: organism code SS; BHI agar, 35-37° C., 20 to 24 hours; unit assumed
Procedure, shortened: as §1

[8] = tested on: Mycobacterium smegmatis ATCC 114; conditions: organism code UU; BHI agar, 35-37° C., 20 to 24 hours; unit assumed
Procedure, shortened: as §1

[9] = tested on: Staphylococcus aureus CMX 553; conditions: organism code FF; BHI agar, 35-37° C., 20 to 24 hours; unit assumed
Procedure, shortened: as §1

Escherichia coli JUHL = conditions: organism code QQ; BHI agar, 35-37° C., 20 to 24 hours; unit assumed
Procedure, shortened: as §1

[10] = tested on: Micrococcus luteus ATCC 4698; conditions: organism code PP; BHI agar, 35-37° C., 20 to 24 hours; unit assumed
Procedure, shortened: (§2)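 Endpoint: lowest concentration with no growth, slight haze or sparsely isolated colonies at the inoculum spot, judged against a compound-free BHI control. Strains were replicator-inoculated at 1:100 (1:10 for Streptococcus and other slow growers).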

[11] = tested on: Streptococcus pyogenes EES61; conditions: organism code LL; BHI agar, 35-37° C., 20 to 24 hours; unit assumed
Procedure, shortened: as §1

[12] = tested on: Enterococcus faecium ATCC 8043; conditions: organism code II; BHI agar, 35-37° C., 20 to 24 hours; unit assumed
Procedure, shortened: as §1

[13] = tested on: Staphylococcus aureus CMX 642A; conditions: organism code DD; BHI agar, 35-37° C., 20 to 24 hours; unit assumed
Procedure, shortened: as §1

[14] = tested on: Staphylococcus aureus A-5278; conditions: organism code CC; BHI agar, 35-37° C., 20 to 24 hours; unit assumed
Procedure, shortened: as §1

[15] = tested on: Staphylococcus aureus NCTC10649M; conditions: organism code EE; BHI agar, 35-37° C., 20 to 24 hours; unit assumed
Procedure, shortened: as §1

[16] = tested on: Staphylococcus epidermidis 3519; conditions: organism code HH; BHI agar, 35-37° C., 20 to 24 hours; unit assumed
Procedure, shortened: as §1

[17] = tested on: Micrococcus luteus ATCC 9341; conditions: organism code OO; BHI agar, 35-37° C., 20 to 24 hours; unit assumed
Procedure, shortened: as §2

[18] = tested on: Streptococcus pyogenes 930; conditions: organism code MM; BHI agar, 35-37° C., 20 to 24 hours; unit assumed
Procedure, shortened: as §1

[19] = tested on: Streptococcus Pneumonia GYR 1171; conditions: organism code YY; BHI agar, 35-37° C., 20 to 24 hours; unit assumed
Procedure, shortened: as §1

[20] = tested on: Nocardia Asteroides ATCC9970; conditions: organism code VV; BHI agar, 35-37° C., 20 to 24 hours; unit assumed
Procedure, shortened: as §1

[21] = tested on: Haemophilis Influenzae DILL AMP R; conditions: organism code WW; BHI agar, 35-37° C., 20 to 24 hours; unit assumed
Procedure, shortened: as §1

[22] = tested on: Streptococcus Pneumonia 5979; conditions: organism code ZZ; BHI agar, 35-37° C., 20 to 24 hours; unit assumed
Procedure, shortened: as §1

Escherichia coli SS = conditions: organism code RR; BHI agar, 35-37° C., 20 to 24 hours; unit assumed
Procedure, shortened: as §1

[23] = tested on: Streptococcus Pneumonia ATCC6303; conditions: organism code XX; BHI agar, 35-37° C., 20 to 24 hours; unit assumed
Procedure, shortened: as §1

Row | Structure (SMILES) | MIC [1] [µg/mL] | MIC (Candida albicans CCH 442) [µg/mL] | MIC [2] [µg/mL] | MIC [3] [µg/mL] | MIC [4] [µg/mL] | MIC [5] [µg/mL] | MIC [6] [µg/mL] | MIC [7] [µg/mL] | MIC (Escherichia coli DC-2) [µg/mL] | MIC [8] [µg/mL] | MIC [9] [µg/mL] | MIC (Escherichia coli JUHL) [µg/mL] | MIC [10] [µg/mL] | MIC [11] [µg/mL] | MIC [12] [µg/mL] | MIC [13] [µg/mL] | MIC [14] [µg/mL] | MIC [15] [µg/mL] | MIC [16] [µg/mL] | MIC [17] [µg/mL] | further results
1 | CC[C@H]1OC(=O)[C@H](C)C(=O)[C@H](C)[C@@H](O[C@@H]2O[C@H](C)C[C@H](N(C)C)[C@H]2O)[C@](C)(OC/C=C/c2ccc(-c3ccsc3)s2)C[C@@H](C)C(=O)[C@H](C)[C@H]2NC(=O)O[C@@]21C [Example 76] | 0.1 (≈ 0.125 µM) | > 100 | 0.1 (≈ 0.125 µM) | 0.01 (≈ 0.0125 µM) | 0.1 (≈ 0.125 µM) | ≤ 0.005 | 0.125 (≈ 0.156 µM) | 100 (≈ 125 µM) | 100 (≈ 125 µM) | 0.78 (≈ 0.971 µM) | 0.1 (≈ 0.125 µM) | 100 (≈ 125 µM) | 0.2 (≈ 0.249 µM) | 0.01 (≈ 0.0125 µM) | 0.02 (≈ 0.0249 µM) | 0.1 (≈ 0.125 µM) | 100 (≈ 125 µM) | 0.05 (≈ 0.0623 µM) | 0.1 (≈ 0.125 µM) | 0.05 (≈ 0.0623 µM) | MIC [18]: 3.1 µg/mL (≈ 3.86 µM); MIC [19]: ≤ 0.004 µg/mL; MIC [20]: 0.1 µg/mL (≈ 0.125 µM); MIC [21]: 8 µg/mL (≈ 9.96 µM); MIC [22]: 16 µg/mL (≈ 19.9 µM); MIC (Escherichia coli SS): 0.2 µg/mL (≈ 0.249 µM); MIC [23]: ≤ 0.004 µg/mL
2 | CC[C@H]1OC(=O)[C@H](C)C(=O)[C@H](C)[C@@H](O[C@@H]2O[C@H](C)C[C@H](N(C)C)[C@H]2O)[C@](C)(OCC#Cc2ccc(-c3cncc(C(N)=O)c3)s2)C[C@@H](C)C(=O)[C@H](C)[C@H]2NC(=O)O[C@@]21C [Example 9] | 0.1 (≈ 0.119 µM) | > 100 | 0.2 (≈ 0.238 µM) | 0.02 (≈ 0.0238 µM) | 0.1 (≈ 0.119 µM) | 0.02 (≈ 0.0238 µM) | 0.25 (≈ 0.298 µM) | > 100 | 50 (≈ 59.6 µM) | 6.2 (≈ 7.39 µM) | 0.1 (≈ 0.119 µM) | 50 (≈ 59.6 µM) | 0.1 (≈ 0.119 µM) | 0.02 (≈ 0.0238 µM) | 0.05 (≈ 0.0596 µM) | 0.1 (≈ 0.119 µM) | > 100 | 0.2 (≈ 0.238 µM) | 0.1 (≈ 0.119 µM) | 0.02 (≈ 0.0238 µM) | MIC [18]: 0.2 µg/mL (≈ 0.238 µM); MIC [19]: ≤ 0.004 µg/mL; MIC [20]: 0.1 µg/mL (≈ 0.119 µM); MIC [21]: 2 µg/mL (≈ 2.38 µM); MIC [22]: 0.03 µg/mL (≈ 0.0358 µM); MIC (Escherichia coli SS): 0.78 µg/mL (≈ 0.93 µM); MIC [23]: ≤ 0.004 µg/mL
3 | CC[C@H]1OC(=O)[C@H](C)C(=O)[C@H](C)[C@@H](O[C@@H]2O[C@H](C)C[C@H](N(C)C)[C@H]2O)[C@](C)(OC/C=C/c2cnc(-c3cccnc3)s2)C[C@@H](C)C(=O)[C@H](C)[C@H]2NC(=O)O[C@@]21C [Example 55] | 0.1 (≈ 0.125 µM) | > 100 | 0.2 (≈ 0.25 µM) | 0.05 (≈ 0.0626 µM) | 0.05 (≈ 0.0626 µM) | ≤ 0.005 | 0.25 (≈ 0.313 µM) | > 100 | 50 (≈ 62.6 µM) | 0.39 (≈ 0.488 µM) | 0.05 (≈ 0.0626 µM) | 50 (≈ 62.6 µM) | 0.2 (≈ 0.25 µM) | 0.05 (≈ 0.0626 µM) | 0.05 (≈ 0.0626 µM) | 0.05 (≈ 0.0626 µM) | > 100 | 0.1 (≈ 0.125 µM) | 0.1 (≈ 0.125 µM) | 0.02 (≈ 0.025 µM) | MIC [18]: 25 µg/mL (≈ 31.3 µM); MIC [19]: 0.03 µg/mL (≈ 0.0375 µM); MIC [20]: 0.02 µg/mL (≈ 0.025 µM); MIC [21]: 4 µg/mL (≈ 5.01 µM); MIC [22]: 2 µg/mL (≈ 2.5 µM); MIC (Escherichia coli SS): 0.39 µg/mL (≈ 0.488 µM); MIC [23]: 0.03 µg/mL (≈ 0.0375 µM)
